The values that follow come from EP1501797B1, “3-(SUBSTITUTED AMINO)-1H-INDOLE-2-CARBOXYLIC ACID ESTER AND 3-(SUBSTITUTED AMINO)-BENZO[B]THIOPHENE-2-CARBOXYLIC ACID ESTER DERIVATIVES AS INTERLEUKIN-4 GENE EXPRESSION INHIBITORS” (Aventis Pharmaceuticals Inc., priority 2002, dated 2003).

One data set has as its system Human Th2 cells. The experiment in a line: Human primary Th2 cells, proliferation (viability, MTS assay). The note with it: Human primary Th2 cells; combined data from 10 different experiments; read-out: Prol. IC50. The format is cell-based. As for the experimental part:
(§1) Briefly, CD4^+CD45RA^+ T cells, isolated from donor peripheral blood mononuclear cells of healthy donors, are educated in the presence of anti-CD3/CD28 antibodies and various growth factors to obtain either a Thl-like or Th2-like phenotypes as determined by the known cytokine profiles of these two cell types.
(§2) Peripheral blood mononuclear cells (PBMC) are prepared from human blood by Ficoll-Hypacque (Pharmacia). The cells are washed two times in Hanks balanced salt solution (HBSS) and counted.
(§3) Naive T cells (CD4^+/CD45RA ) are prepared by negative selection method using following antibodies and Dynabeads: anti-CD8, anti-HLA-DR, (where HLA means human leucocyte antigen) anti-CD14, anti-CD16, anti-CD19, anti-CD45RO antibodies (all from R&D Systems, 1-2 µg/ml) are added to the cells, and the cells are kept on ice for 30 min. The cells are washed two times in HBSS, and goat anti- mouse Ig-beads, (bead:target ratio, 5:1) are added. The cells and beads are slowly rotated at 4°C for 20 min. (following the protocol supplied from Dynal). The supernatant is removed and fresh goat anti-mouse Ig-beads are added to the supernatant, which is slowly rotated at 4°C for 20 min. The cells are counted and phenotypically characterized by flow cytometric analysis.
(§4) CD4^+/CD45RA^+ cells at a density of 10^6/ml in RPMI, is prepared and added to RPMI medium containing 10% Hyclone serum/ glutamine and 1-2 µg/ml anti-CD28 Ab. The cells are split in two aliquots. For Th1 cells: anti-IL-4 Ab (1-2 µg/ml), IFN-γ (1 µg/ml, or 5000 units/ml) are added to the wells. For Th2 cells: IL-4 (100-200 ng/ml), anti-IFN-γ neutralizing Ab (1-2 µg/ml), anti-IL-12 neutralizing Ab (1-2 µg/ml) are added into the wells. […] The cells are transferred to fresh wells and grown in 200 units/ml IL-2 for 2 weeks by feeding them every other day with IL-2 containing medium and splitting the cultures 1:2 or 1:3 as needed. The degree of polarization is determined by intracellular staining of cells with anti-IFN-γ and anti-IL-4 antibodies from Pharmingen, and using flow cytometry from Becton Dickinson (BD), according to manufacturers description. The cells are stimulated with PHA and alloantigens at day 14 and 28 as described below. Eight days after the second allostimulation the cells can be used for compound screening or frozen for future use. For compound testing, large quantities of Th1 and Th2 cells derived from a given donor (NYTh1 and NYTh2) were expanded and frozen as aliquots in liquid nitrogen. The cells are thawed and cultured as and when needed. The thawed cells are stimulated with alloantigen/PHA combination. The cells are used for compound screening after 8-10 days in culture.
(§5) Re-stimulation by allogeneic cells: Human PBMCs, to be used as alloantigens, are isolated from freshly drawn blood by Ficoll separation. […] Cells are counted and diluted to a final concentration of 2 x 10^6/ml in medium containing 10 µg/ml PHA and 200 units/ml IL-2.
(§6) Ninetysix well Falcon tissue culture plates (Fisher Scientific) are coated with 100 microliters per well of 10 µg/ml anti-CD3 (PharMingen) antibody in phosphate buffered saline (PBS) and stored at 4°C one day before the experiment.
(§7) On the day of assay, anti-CD3 antibody coated plates are washed with PBS once to remove all soluble anti-CD3 antibody. […] All compounds and controls are assayed in triplicates.
(Tetrazolium dyes change colour on reduction, which living cells bring about.)

Assay in data set [1]: as above
In kind it is cell-based. The following applies: human, th2 cells, MTS, read-out: Proliferation (% control) mean. As for the experimental part: as §1, §2, §3, §4, §5, §6, §7

The next data set deals with IgG2a Anti-DNP Antibody. The experiment in a line: In vivo model of humoral immunity in mice (DNP-KLH), IgG2a anti-DNP antibody. As for the experimental part:
Female Balb/c mice, each weighing approximately 20 to 25 grams each, aged 5 to 8 weeks are used. Each experiment uses 30 mice.
The antigen for immunization is 2,4-dinitrophenyl (DNP) or 2,4,6-trinitrophenyl (TNP) conjugated to keyhole limpet haemocyanin (KLH). The antigen (100 µg/mouse) is adsorbed to an adjuvant (colloidal aluminum hydroxide) and given i.p. to animal in a total volume of 0.2-0.3 ml.
Animals are randomly divided into 5 groups of 6 mice each. Group 1 is a positive control group, Groups 2, 3, and 4 are test compound groups, and Group 5 is a vehicle control group. Compounds may be given by i.n., i.p., p.o., s.c., i.m. or i.v. administration. […] On day 8 after the immunization, mice are bled by cardiac puncture under anesthesia (isoflurane), and the serum samples are stored at -20°C until required for antibody analysis. The anesthetized animals are euthanized with overdosage of sodium pentobarbital at the end of experiment. Statistical analysis of the data are performed using ANOVA.
Mice are immunized with a hapten carrier conjugate, DNP-KLH, and anti-DNP antibody levels are determined in a isotype specific manner as described above. […]

“And” between values parts separate entries of the source, which are not always exact repeats. Equal entries are not always repeated.

As for `O=C(O)c1[nH]c2ccccc2c1Nc1ccncc1` [Example 28, 3-(4-Pyridinylamino)-1H-indole-2-carboxylic acid], the IC50 in the data set on Human Th2 cells was over 10 µM. Further, the viability at 0.01 µM in data set [1] (0.01 µM) turned out to be 89.5%. Further, in data set [1] (0.03 µM), the viability at 0.03 µM stood at 85%. For the same compound, the viability at 0.1 µM in data set [1] (0.1 µM) is 86.7%. The viability at 0.3 µM in data set [1] (0.3 µM) was 80.6%. In addition, the viability at 1 µM in data set [1] (1 µM) came to 77.2%. In addition, the viability at 3 µM in data set [1] (3 µM) was 72%. Further, the viability at 10 µM in data set [1] (10 µM) came out at 71.5%. In addition, the “IgG2a Anti-DNP Antibody Titer” value in the data set with IgG2a Anti-DNP Antibody (individual animals 1-6, dose not stated) was 30.59 and 38.60 and 14.09 and 17.45 and 30.21 and 27.98. In addition, in the data set with IgG2a Anti-DNP Antibody (vehicle 30.47 +/-2.37, dose not stated), the “IgG2a Anti-DNP Antibody Titer Mean+/-SE” value was 26.49 +/-3.72. Besides, the “IgG2a Anti-DNP Antibody Titer Inhibition” value with IgG2a Anti-DNP Antibody (versus vehicle) turned out to be 13%.

The term IC50 denotes the point on the concentration scale where inhibition reaches its midpoint.
